The values that follow come from US11559510B2, “Isoflavonoid composition with improved pharmacokinetics” (NOXOPHARM LIMITED, priority 2016, dated 2023).

For data set [1] the following is noted: cited from earlier work.
A short description of data set [2]: Extrapolation of rat rectal plasma levels to humans on a body surface area basis. The settings on record: extrapolated from rat rectal data. The method, then: In this study, idronoxil was given to rats at a dose of 10 mg/kg body weight, yielding a plasma concentration of about 35 to 40 ng/mL up to 8 hours from a single rectal administration. This dosage equates (on a body surface area basis) to a dose in humans of about 2 mg/kg BW. Thus, a blood level range of 20-400 ng/mL could be achieved in humans with a dosage range of 1-20 mg/kg BW, and the preferred range of 80-160 ng/mL with a dosage range of 4-8 mg/kg BW.

In another data set the test system is cancer cells. The settings on record: cited from earlier work.

Take `Oc1ccc(C2=Cc3ccc(O)cc3OC2)cc1` [Idronoxil, 2H-1-Benzopyran-7-0,1,3-(4-hydroxyphenyl)]: in data set [1] (bolus IV administration), the plasma elimination half-life entry was “short”. The “time after administration at which free idronoxil is detected in plasma” value in data set [1] (given orally, most patients) is ≤ 30 min. In data set [1] (given orally), the absolute oral bioavailability result is “low”. The “blood levels readily attained” value in data set [1] (humans treated both orally and intravenously) is 50 µM. The “blood level range that could be achieved in humans” value in data set [2] (dosage range of 1-20 mg/kg BW) is 20 to 400 ng/mL; in data set [2] (dosage range of 4-8 mg/kg BW) it was 80 to 160 ng/mL. The “concentration where it kills about 10% of the cancer cells (sensitising use)” value in the data set on cancer cells (cancer cells in cell culture) is 50 to 300 ng/mL. Besides, the “concentration that kills 50% of cancer cells in cell culture (IC50)” value in the data set on cancer cells (depending largely on the tumour type) was 0.2 to 1.2 µg/mL. Besides, the “direct cytotoxic or sensitising effect when drug added in a pulsatile manner” value with cancer cells (left in cancer cell culture for 2-3 hours and then removed) is “largely ineffective”.
